In patent US8354274B2, “Synthetic surfaces for culturing cells in chemically defined media” (Geron Corporation, priority 2008, dated 2013):
Bridges are numbered along the chain shown (N, C = ends). Where no end group is shown, it is not given here.

Experiments:
[1] = tested on: HT-1080 human fibrosarcoma cells; assay: HT-1080 cell adhesion assay (crystal violet, absorbance at 570 nm); assay type: cell-based; details: for HT-1080 adhesion compared with linear BSP (SEQ ID NO:4)-conjugated (meth)acrylate: cyclic peptide conjugated to Formulation SA1, normalized to fibronectin (FN, 5 mg/mL)-coated surfaces
Text: To evaluate ability of a polypeptide conjugated to embodiments of swellable (meth)acrylate using these conjugation methods to enable cell adhesion and proliferation, peptides Ac-LysTyrGlyArgLysArgLeuGlnValGlnLeuS erIleArgThr-NH2 (SE Q ID NO:22) (AG-73, an adhesive peptide) and Ac-GlyArgGlyGluSerProIleTyrLys-NH2 (SEQ ID NO:30) (RGE, a negative control) were conjugated to swellable (meth)acrylate (as described above) and adhesion of HT-1080 human fibrosarcoma cells to the swellable (meth)acrylate was evaluated. Briefly, Laminin (5 μg/mL, Sigma-Aldrich) control wells were coated for 1 hour at room temperature. All wells were blocked with 1% bovine serum albumin (BSA) in phosphate buffered saline (PBS) for 1 hour at 37° C. Wells were washed briefly with PBS before incubation with 0.1% BSA in Iscove's Modified Dulbecco's Medium (IMDM) prior to cell seeding. HT-1080 human fibrosarcoma cells (ATCC number: CCL-121) were grown in IMDM (Lonza) with 10% FBS (Lonza) to 90% confluency at standard cell culture conditions. Cells were trypsinized and allowed to recover in IMDM with 10% FBS for 30 minutes at 37° C., 5% CO2. After recovery, cells were washed and resuspended in 0.1% BSA in IMDM and seeded on peptide-conjugated plates at a density of 30,000 cells/well. Cell adhesion was allowed to take place for 1 hour at standard cell culture conditions. The media was aspirated from the wells and adherent cells were fixed and stained in 50 μL of 0.2% crystal violet in 20% methanol for 8 minutes at room temperature. Cellular absorption of crystal violet was quantified through addition of 1% SDS in H2O for 5 minutes prior to absorbance measurement at 570 nm. For this assay, after polypeptide conjugation the remaining NHS esters on the swellable (meth)acrylate were reacted with ethanolamine or aminopropyl morpholine to reduce uptake of crystal violet dye by the swellable (meth)acrylate.

H7 hES cells = assay: AttoPhos screening (alkaline phosphatase activity) of undifferentiated hES cells in chemically defined medium; assay type: cell-based, human; details: for support of culture of undifferentiated stem cells (AttoPhos): peptides conjugated to Formulation SA1 at 10, 100 and 1000 μM input concentration
Procedure: All experimental plates were sterilized prior to the cell seeding by spraying with 70% ETOH, drying in a laminar hood, and washing five times with 200 μl Dulbecco's Phosphate Buffered Saline (DPBS). H7 hES cells were seeded on peptide conjugated swellable (meth)acrylate (SAP) surfaces at a density of 35,000 cells/well (96-well plate) in 100 μl of chemically defined medium Xvivo10 (Lonza, Cat #04-743Q) and supplemented with 80 ng/ml basic fibroblast growth factor (bFGF) (R&D systems, Cat #234-FSE/CF) and 0.5 ng/ml transforming growth factor-β1 (TGFβ1) (R&D systems, Cat. #240B). MATRIGEL™ (MG)-coated wells were used as positive control for adhesion of undifferentiated hES cells. Cells were cultured for 48 hrs under standard cell culture conditions (37° C. with 5% CO2) and then were fixed and processed for AttoPhos assay to measure alkaline phosphatase activity, which is a known marker for undifferentiated hES cells, and/or BCIP staining as described below.
AttoPhos screening was performed as follows. Briefly, at the end of incubation time, cells were rinsed with 150 μl of DPBS and fixed with 4% paraformaldehyde for 10 min at room temperature (70 μl/well of 96-well plate). The cells were washed once with 150 μl of DPBS, and treated for 10 min with 100 μl of AttoPhos fluorescent substrate for alkaline phosphatase (Promega) (diluted 1:3 in DPBS) protected from light. AttoPhos fluorescent intensity at 485/535 nm was obtained using Victor 3 microplate reader (Perklin Elmer). AttoPhos fluorescent intensity for experimental surfaces was expressed as % of MATRIGEL™ control.

HepG2/C3A cells = assay: Serum-free attachment of HepG2/C3A cells (LDH activity, absorbance at 490 nm); assay type: cell-based; details: peptide conjugated to SA layer, 24 hours
Procedure: HepG2/C3A cells (ATCC # CRL-10741) were plated at 25,000 cells per well in 100 μl media in triplicate on SAP surfaces, BD BioCoat™ Collagen I and Corning CellBind® treated Topas™ in a 96 well format and cultured at in Eagle's Minimum Essential Medium (ATCC #30-2003) supplemented with 1% penicillin-streptomycin (Invitrogen #15140-155). The culture medium was not supplemented with fetal bovine serum (as recommended by the cell line supplier) nor was the SAP surface exposed to fetal bovine serum. The culture plates were incubated at 37° C., in 5% CO2 and 95% relative humidity for 24 hours. The cell culture plates having the SA surfaces were prepared as described in EXAMPLE 1. Peptides were conjugated according to EXAMPLE 2. […] The line in FIG. 24 indicates 75% performance of cells on Collagen 1.
The attachment of the HepG2/C3A cells was determined using a Cytotoxicity Assay (Promega CytoTox 96® Non-Radioactive Cytotoxicity Assay # G1780) which estimates the number of living cells attached to the culture surfaces. After 24 hours of in culture, the cells were vigorously washed with phosphate buffer, lysed via the introduction of the lysis buffer solution and incubation at 37 C for 1 hour to release lactate dehydrogenase (LDH) enzyme from the viable cells that remain attached to the culture surfaces. The biological activity of the released lactate dehydrogenase enzyme was measured via absorbance at 490 nm using a plate reader (Victor 3 from PerkinElmer).

[2] = peptide conjugated to swellable (meth)acrylate, 1 hour adhesion, OD570 nm normalized to Laminin

## Ac-GlyArgGlyGluSerProIleTyrLys-NH2 (Ac-GRGESPIYK-NH2) [reference compound]
[1]; [2]
  adhesion of HT-1080 cells: did not adhere

## Ac-LysGlyGlyAsnGlyGluProArgGlyAspThrTyrArgAlaTyr-NH2 (Ac-KGGNGEPRGDTYRAY-NH2) [SEQ ID NO:4]
H7 hES cells; SEQ ID NO:4 conjugated to Formulation SA1A using 1000 μM solution, Xvivo10 + bFGF + TGFβ1, 48 hrs
  AttoPhos fluorescence intensity (FI) compared to MATRIGEL control: 56-60%
H7 hES cells; peptide at 1, 10, 100 and 1000 μM, formulation SA1A surfaces
  adhesion and growth of undifferentiated stem cells versus peptide concentration (AttoPhos): peptide concentration dependent
H7 hES cells
  support of culture of undifferentiated stem cells (AttoPhos): appeared to better support the culture of undifferentiated stem cells

## Ac-LysGlyGlyCys^4AsnGlyGluProArgGlyAspThrTyrArgAlaTyrCys^17-NH2 (Ac-KGGCNGEPRGDTYRAYC-NH2; disulfide 4-17; SMILES CC(=O)N[C@@H](CCCCN)C(=O)NCC(=O)NCC(=O)N[C@H]1CSSC[C@@H](C(N)=O)NC(=O)[C@H](Cc2ccc(O)cc2)NC(=O)[C@H](C)NC(=O)[C@H](CCCNC(=N)N)NC(=O)[C@H](Cc2ccc(O)cc2)NC(=O)[C@H]([C@@H](C)O)NC(=O)[C@H](CC(=O)O)NC(=O)CNC(=O)[C@H](CCCNC(=N)N)NC(=O)[C@@H]2CCCN2C(=O)[C@H](CCC(=O)O)NC(=O)CNC(=O)[C@H](CC(N)=O)NC1=O) [SEQ ID NO:8]
[1]
  HT-1080 adhesion compared with linear BSP (SEQ ID NO:4)-conjugated (meth)acrylate: supported HT-1080 adhesion similar to

## Ac-LysGlyGlyCys^4GluProArgGlyAspThrTyrArgCys^17-NH2 (Ac-KGGCEPRGDTYRC-NH2; disulfide 4-13; SMILES CC(=O)N[C@@H](CCCCN)C(=O)NCC(=O)NCC(=O)N[C@H]1CSSC[C@@H](C(N)=O)NC(=O)[C@H](CCCNC(=N)N)NC(=O)[C@H](Cc2ccc(O)cc2)NC(=O)[C@H]([C@@H](C)O)NC(=O)[C@H](CC(=O)O)NC(=O)CNC(=O)[C@H](CCCNC(=N)N)NC(=O)[C@@H]2CCCN2C(=O)[C@H](CCC(=O)O)NC1=O) [SEQ ID NO:9]
[1]
  HT-1080 adhesion compared with linear BSP (SEQ ID NO:4)-conjugated (meth)acrylate: supported HT-1080 adhesion similar to

## Ac-LysGlyGlyLys^4AsnGlyGluProArgGlyAspThrTyrArgAlaTyrAsp^17-NH2 (Ac-KGGKNGEPRGDTYRAYD-NH2; lactam 4-17; SMILES CC(=O)N[C@@H](CCCCN)C(=O)NCC(=O)NCC(=O)N[C@H]1CCCCNC(=O)C[C@@H](C(N)=O)NC(=O)[C@H](Cc2ccc(O)cc2)NC(=O)[C@H](C)NC(=O)[C@H](CCCNC(=N)N)NC(=O)[C@H](Cc2ccc(O)cc2)NC(=O)[C@H]([C@@H](C)O)NC(=O)[C@H](CC(=O)O)NC(=O)CNC(=O)[C@H](CCCNC(=N)N)NC(=O)[C@@H]2CCCN2C(=O)[C@H](CCC(=O)O)NC(=O)CNC(=O)[C@H](CC(N)=O)NC1=O) [SEQ ID NO:6]
[1]
  HT-1080 adhesion compared with linear BSP (SEQ ID NO:4)-conjugated (meth)acrylate: supported HT-1080 adhesion similarly to linear BSP-conjugated (meth)acrylates

## Ac-LysGlyGlyLys^4GluProArgGlyAspThrTyrArgAsp^13-NH2 (Ac-KGGKEPRGDTYRD-NH2; lactam 4-13; SMILES CC(=O)N[C@@H](CCCCN)C(=O)NCC(=O)NCC(=O)N[C@H]1CCCCNC(=O)C[C@@H](C(N)=O)NC(=O)[C@H](CCCNC(=N)N)NC(=O)[C@H](Cc2ccc(O)cc2)NC(=O)[C@H]([C@@H](C)O)NC(=O)[C@H](CC(=O)O)NC(=O)CNC(=O)[C@H](CCCNC(=N)N)NC(=O)[C@@H]2CCCN2C(=O)[C@H](CCC(=O)O)NC1=O) [SEQ ID NO:7]
[1]
  HT-1080 adhesion compared with linear BSP (SEQ ID NO:4)-conjugated (meth)acrylate: supported HT-1080 adhesion similarly to linear BSP-conjugated (meth)acrylates

## Ac-LysTyrGlyArgLysArgLeuGlnValGlnLeuSerIleArgThr-NH2 (Ac-KYGRKRLQVQLSIRT-NH2) [AG-73]
[1]; 1 μM peptide solution used for conjugation
  adhesion of HT-1080 cells: did not result in cell adhesive surface
[1]; 10 μM peptide solution used for conjugation
  adhesion of HT-1080 cells: resulted in an adhesive surface
[1]; 100 μM peptide solution used for conjugation
  adhesion of HT-1080 cells: resulted in an adhesive surface
[1]; [2]
  adhesion of HT-1080 cells: adhered specifically

## GlyArgGlyAspSerProLys (GRGDSPK; Synthetic polypeptide including sequence derived from human fibronectin) [s-FN]
H7 hES cells
  support of culture of undifferentiated stem cells (AttoPhos): comparable in performance to the long fibronectin sequence

## KGGGQKCIVQTTSWSQCSKS (cysteine pairing not given here) [SEQ ID NO:13]
HepG2/C3A cells
  serum-free attachment of HepG2/C3A cells compared with CellBind treated Topas: greater than CellBind® treated Topas™

## KGGTWYKIAFQRNRK [SEQ ID NO:16]
HepG2/C3A cells
  attachment of HepG2/C3A cells compared to Collagen I: *CLS 01020 (Polypeptides exhibiting results better than 75% attachment compared to Collagen I (see FIG. 24) are marked with an asterix in Table 6)
  serum-free attachment of HepG2/C3A cells compared with CellBind treated Topas: greater than CellBind® treated Topas™

## KYGKAFDITYVRLKF [SEQ ID NO:21]
HepG2/C3A cells
  serum-free attachment of HepG2/C3A cells compared with CellBind treated Topas: greater than CellBind® treated Topas™

## KYGSETTVKYIFRLHE [SEQ ID NO:19]
HepG2/C3A cells
  attachment of HepG2/C3A cells compared to Collagen I: *CLS 01035 (Polypeptides exhibiting results better than 75% attachment compared to Collagen I (see FIG. 24) are marked with an asterix in Table 6)
  serum-free attachment of HepG2/C3A cells compared with CellBind treated Topas: greater than CellBind® treated Topas™
